Assay results from patent publication EP4647082A1, “PHARMACEUTICAL COMPOSITION COMPRISING A CGRP RECEPTOR ANTAGONIST FOR THE TREATMENT OF ACUTE MIGRAINE” (NUVIE BIO, Inc., priority 2024, dated 2025).
Bridge positions count the residues as written; N and C are the ends. Square brackets hold non-standard residues; d marks the D form. Peptide text beside a SMILES is read from it. * marks the point of attachment. Phe(2-CONH2) = NC(=O)c1ccccc1C[C@H](N)C(=O)O; Orn(iPr) = CC(C)NCCC[C@H](N)C(=O)O; Oxazole2carbonyl = O=C(c1ncco1)*; 3Pal = N[C@@H](Cc1cccnc1)C(=O)O

Key:
Solubility of AXN-001 = format: physicochemical; conditions: neutral pH
[1] = Degradation rates of 1 mg/mL solutions of AXN-001 at different pH and temperatures over 30 days; format: physicochemical
Description: To achieve the higher pH values, an isotonic 10 mM phosphate buffer was used.
The degradation rates were then determined for 1 mg/mL solutions of AXN-001 at pH 3.5, 4.5, 5.5, 6.5, and 7.5, when kept at 2-8°C, 25°C, 40°C, and 60°C for 30 days. Table 1: Degradation rates
Degradation rates at 2-8° C were not determined ("n.d.") because degradation could not be measured at thirty days (with the exception of pH 7.5).

CC(C)NCCC[C@@H]1NC(=O)[C@@H](NC(=O)[C@H](Cc2ccccc2C(N)=O)NC(=O)[C@H](NC(=O)c2ncco2)C(C)C)CSSC[C@@H](C(=O)N[C@@H](Cc2cccnc2)C(N)=O)NC(=O)[C@H](Cc2ccccc2)NC(=O)[C@@H]2CCCN2C(=O)CNC(=O)[C@H](C(C)C)NC(=O)[C@H](CC(=O)O)NC1=O [AXN-001, Oxazole-2-carbonyl-D-Val-Phe(2-Cbm)-c(Cys-Orn (iPr)-Asp-Val-Gly-Pro-Phe-Cys)-3Pal-NH2] (Oxazole2carbonyl-[dV][Phe(2-CONH2)]C[Orn(iPr)]DVGPFC[3Pal]-NH2; disulfide 3-10)
solubility (Solubility of AXN-001): low | Degradation Rates ([1]; pH 3.5, 25°C): 0.058 %/day | Degradation Rates ([1]; pH 3.5, 40°C): 0.20 %/day | Degradation Rates ([1]; pH 3.5, 60°C): 1.50 %/day | Degradation Rates ([1]; pH 4.5, 25°C): 0.019 %/day | Degradation Rates ([1]; pH 4.5, 40°C): 0.12 %/day | Degradation Rates ([1]; pH 4.5, 60°C): 1.19 %/day | Degradation Rates ([1]; pH 5.5, 25°C): 0.007 %/day | Degradation Rates ([1]; pH 5.5, 40°C): 0.23 %/day | Degradation Rates ([1]; pH 5.5, 60°C): 3.18 %/day | Degradation Rates ([1]; pH 6.5, 25°C): 0.039 %/day | Degradation Rates ([1]; pH 6.5, 40°C): 0.54 %/day | Degradation Rates ([1]; pH 6.5, 60°C): 3.47 %/day | Degradation Rates ([1]; pH 7.5, 2-8°C): 0.02 %/day | Degradation Rates ([1]; pH 7.5, 25°C): 0.605 %/day | Degradation Rates ([1]; pH 7.5, 40°C): 1.62 %/day | Degradation Rates ([1]; pH 7.5, 60°C): 5.55 %/day
